According to US4442093A, “Method for administering 24,25-dihydroxycholecalciferol to persons suffering from hypercalcemia” (Kureha Kagaku Kogyo Kabushiki Kaisha, priority 1981, dated 1984):

Key:
thymic cells = assay: Pattern of the size of thymic cells by FACS (Example 12); assay type: in vivo, rats; conditions: 100 µg/kg/day oral 12 days with puromycin aminonucleoside
Experimental: After feeding the rats (the same number and the same grouping) of the same strain and treating them in the same manner as in Example 11, their thymus was resected, and an analysis of the pattern of the size of the thymic cells was carried out while using Fluorescence Activated Cell Sorter (FACS II, made by Becton-Dickinson Co.) as follows:
After loosing the resected thymus in phosphate buffer solution sufficiently with a pincette, pipetting well and passing the mixture through a standard #200 Tyler stainless steel mesh, the filtrate was treated with an aqueous 0.83% by weight ammonium chloride buffer solution containing tris-hydroxyaminomethane to carry out hemolysis of the erythrocytes intermingled therein followed by three times of washing with the phosphate buffer solution. After adjusting the concentration of the thus obtained thymic cell to 5×10^6 cells/ml with the addition of the phosphate buffer solution, the abovementioned analysis was carried out. The ratio of the number of living thymic cells to the total number of the thus obtained thymic cells was confirmed to be higher than 95% after staining with trypan blue and counting under microscope.

calcium level in serum [1] = assay: Serum calcium in hemodialysis patient hypercalcemic due to active Vitamin D3 (Example 7); assay type: in vivo, human; conditions: person six; baseline
Experimental: person six who was subjected to hemodialysis on account of renal failure and became hypercalcemia due to the four month administration of active Vitamin D3 at a daily dose of 0.5 to 1.0 microgram was treated by the oral administration of the capsule composition similar to that prepared in Example 6 for three continuous days at a daily dose of 10 micrograms of 24R,25-(OH)2 -D3.

calcium level in serum [2] = assay: Serum calcium in normal fasted rats (Example 2); assay type: in vivo, male Wistar-rats
Experimental: Four subgroups of male Wistar-rats (a subgroup consisting of 5 animals) were used as the test animals, and they were fasted one whole day before the test.
To the rats of the first group consisting of 2 subgroups, a solution of 24R,25-(OH)2 -D3 in the triglyceride ester used in Example 1 was orally administered once at a dose rate of 100 micrograms of the agent/kg body weight.
To the rats of the second group consisting of 2 subgroups, only the triglyceride used in Example 1 was administered orally, and while using them as control, the calcium level in their serum was determined as in the first group.

[3] = Acute oral mammalian toxicity; parameters: species or system male mouse of ICR-strain; conditions: mouse, in vivo, read-out: LD50 (per os)
Experimental: 0.3 ml of ethanolic solution containing 150 mg of 24R,25-(OH)2 -D3 was suspended in 15 ml of Panacete® 810 (triglyceride ester of C8 and C10 -fatty acid, made by Nippon Oil & Fats Co., Ltd.) to obtain a suspension containing 2% by weight of ethanol. The thus prepared composition was orally administered to a group of male mouse of ICR-strain consisting of 10 animals at a dose rate of 150 mg of 24R,25-(OH)2 -D3 per kg.

blood sugar = assay: Blood sugar in streptozotocin rats (Example 22); assay type: in vivo, male Wistar rats; conditions: 10 µg/kg/day p.o., 4 weeks, streptozotocin i.p.
Experimental: Among the male Wistar rats in 6th week after birth to which 60 mg of streptozotocin/kg body weight was intraperitoneally administered, those in which positive urine sugar was confirmed after one week of the administration, reduction of both urine sugar and blood sugar was shown by the administration of regular insulin and a state of hyper urine sugar and hyper blood sugar was confirmed after a few days of the administration of regular insulin. The confirmed rats were used as the model animals of glycosuria in the following tests. As control, the male Wistar rats intraperitoneally administered with aqueous physiological saline solution instead of streptozotocin were used. These rats were fed with an ordinary solid diet (CE-2, prepared by Nippon Crea Co., Ltd.)
The model animals were divided into two groups each consisting of 12 animals, and to the rats of the first group (according to the present invention), 24R,25-(OH)2 -D3 was forcibly administered p.o. in a state of solution in MCT (triglyceride of C8 and C10 -fatty acid) containing 0.2% by weight of ethanol once a day, 5 to 6 times a week for continuous 4 weeks at a daily dose rate of 10 micrograms/kg body weight. To the rats of the second group, only the same amount of MCT containing 0.2% by weight of ethanol as above was forcibly p.o. administered in the same manner as in the first group. […]

blood sugar level = assay: Blood sugar in patients (Example 23); assay type: in vivo, human
Experimental: Three patients shown in Table 17 were treated by oral administration of a daily dose of 4 to 6 micrograms of 24R,25-(OH)2 -D3 in a form of the soft capsule composition obtained in Example 6 for 3 continuous weeks. After the completion of administration, the patient was fasted for a night and their blood specimen was collected at 11:00 a.m. in the next morning.
Effectiveness of reducing blood sugar level (ERBS) is calculated from the […]

[4] = average of 3 patients, 4 to 6 µg/day oral, 3 weeks
[5] = person fourteen, 4 µg/day oral, 3 weeks
[6] = person nineteen, 6 µg/day oral, 3 weeks
[7] = person seven, 6 µg/day oral, 3 weeks

C=C1CC[C@H](O)C/C1=C/C=C1\CCC[C@]2(C)[C@@H]([C@H](C)CC[C@@H](O)C(C)(C)O)CC[C@@H]12 [24R,25-(OH)2 -D3]
number ratio of cells a little larger than normal cell to total thymic cells (thymic cells): the same as that of the control group
calcium level in serum before the administration (calcium level in serum [1]): 12.8 mg/dL
Calcium level in serum (calcium level in serum [2]; 2 h after 100 µg/kg oral): 10.6 ± 0.3 mg/dL
Calcium level in serum (calcium level in serum [2]; 5 h after 100 µg/kg oral): 10.5 ± 0.3 mg/dL
LD50 at 336 h [3]: > 150 mg/kg
Blood sugar (blood sugar): 208 ± 42 mg/dL
Blood sugar level after administration, average (blood sugar level; [4]): 129.7 ± 9.1 mg/dL
Effectiveness in reducing blood sugar level, average (blood sugar level; [4]): 86.2%
Blood sugar level before administration, average (blood sugar level; average of 3 patients, baseline): 182 ± 13.5 mg/dL
Blood sugar level after administration (blood sugar level; [5]): 120 mg/dL
Effectiveness in reducing blood sugar level (blood sugar level; [5]): 100%
Blood sugar level before administration (blood sugar level; person fourteen, baseline): 168 mg/dL
Blood sugar level after administration (blood sugar level; [6]): 138 mg/dL
Effectiveness in reducing blood sugar level (blood sugar level; [6]): 76%
Blood sugar level before administration (blood sugar level; person nineteen, baseline): 195 mg/dL
Blood sugar level after administration (blood sugar level; [7]): 131 mg/dL
Effectiveness in reducing blood sugar level (blood sugar level; [7]): 82.5%
Blood sugar level before administration (blood sugar level; person seven, baseline): 183 mg/dL
